Measurements published in patent US20170114093A1, “Methods of Treatment and Prevention of Disease by Arginine-rich Compositions that Induce Cytoprotection and Neuroprotection” (priority 2015, published 2017).
“Also recorded” adds a separate entry of the source.

Key:
SAPK/JNK = assay: Western blot of phospho-SAPK/JNK (cell death signaling) in OGD-treated primary neuronal cultures; format: cell-based, rat; settings: after OGD
Text: JNK signaling is widely considered to be an indicator of cell death signaling.
Dissociated primary neuronal cell cultures treated in the same manner as indicated in Example 2 were collected and their cells lysed. Cellular proteins were precipitated and denatured for immunohistochemical analysis by Western Blot. Phospho-SAPK/JNK ([…]) antibody detects endogenous levels of p46 and p54 SAPK/JNK dually phosphorylated at threonine 183 and tyrosine 185. Levels of The stress-activated protein kinase/Jun-amino-terminal kinase SAPK/JNK are widely considered to be molecular sequelae of the activation of cell death pathways that lead to apoptosis.

[1] = tested on: primary rat cortical neurons; assay: Oxygen glucose deprivation (OGD, 90 min) of primary neuronal cultures, cell viability by MTT reduction; format: cell-based; settings: for protection of cortical rat neurons from the impact of OGD (cell viability): pre-incubation 30 min before 90 min OGD, MTT; for level of protection from OGD, compared with Compound 4: 90 min OGD
Protocol: FIGS. 1 and 2 are histograms showing the cell viability of primary rat cortical neurons that had been exposed to ninety (90) minutes oxygen glucose deprivation. Pre-incubation of an arginine-rich polypeptide [RRRRRRRRR (SEQ ID: 4)]
Dissociated primary neuronal cell cultures were prepared from rat brains at 37° C. in a humidified atmosphere containing 5% CO2 and […] and grown to confluence in glucose-containing media. Indicated compounds were applied thirty (30) minutes before cultures were placed in an environment of oxygen glucose deprivation (OGD). OGD was achieved using glucose-free media and a humidified atmosphere containing 5% CO2 and 95% N2. OGD was continued for ninety (90) minutes and terminated by return to baseline conditions with glucose and O2 restored. Reduction of 3-(4,5-dimethyl-2-thiazolyl)-2,5-diphenyltetrazolium bromide (MTT) by cellular dehydrogenases measured mitochondrial activity and cell health. […] This model is a dissociated cell preparation, therefore vasculature is absent, therefore the activity of Compound 4 (SEQ ID NO: 4), an inventive Arginine rich polypeptide, is shown to be independent of changes to vascular tone and indicates protection from a novel mechanism of action.

RRRRRRRRR (cell penetrating peptide) [Compound 4]
p54 and p48 JNK cell death signaling (Western blot) (SAPK/JNK; 2 μM, p<0.05, n=3): significantly suppressed | protection of cortical rat neurons from the impact of OGD (cell viability) ([1]; 2 μM): significant protection | protection of cortical rat neurons from the impact of OGD (cell viability) ([1]; 10 μM): significant protection

CCRRRRRRR [Control peptide; cysteine-arginine peptide of the kind claimed in WO2013158739]
protection of cortical rat neurons from the impact of OGD (cell viability) ([1]; 2 μM): no significant neuroprotection; also recorded: no significant neuroprotective effect | protection of cortical rat neurons from the impact of OGD (cell viability) ([1]; 2 μM, listed as ccrrrrrrr): no significant neuroprotection; also recorded: no significant neuroprotective effect | protection of cortical rat neurons from the impact of OGD (cell viability) ([1]; 10 μM): no significant neuroprotection; also recorded: no significant neuroprotective effect | protection of cortical rat neurons from the impact of OGD (cell viability) ([1]; 10 μM, listed as ccrrrrrrr): no significant neuroprotection; also recorded: no significant neuroprotective effect

C[C@@H]([C@@H](O)c1ccc(O)cc1)N1CCC(O)(c2ccccc2)CC1 [CP 101 606]
level of JNK cell death signaling, compared with Compound 4 2 μM (SAPK/JNK; 10 μM): comparable | level of protection from OGD, compared with Compound 4 ([1]; 10 μM): comparable

C[C@H](NC(c1cccc2[nH]c(=O)c(=O)[nH]c12)P(=O)(O)O)c1ccc(Br)cc1 (some centres unmarked) [NVPAAM077]
level of JNK cell death signaling, compared with Compound 4 2 μM (SAPK/JNK; 100 nM): comparable | level of protection from OGD, compared with Compound 4 ([1]; 100 nM): comparable
